Measured values as given in patent publication US8501908B2, “Immunogenic peptides” (priority 2008, dated 2013).

Tests used:
[1] = test system: PBMCs from DLBCL patients; experiment: γ-IFN release ELISPOT, PBMCs of DLBCL patients after short-term culture with peptides; type: cell-based, human; parameters: γ-IFN response to peptides: unit not given here; settings: for γ-IFN response to peptides: triplicate ELISPOT
[2] = test system: PBMCs from healthy donors; experiment: γ-IFN release ELISPOT, PBMCs of healthy donors after short-term culture with peptides; type: cell-based, human; settings: triplicate ELISPOT, ± SD
[3] = Patient 1, De novo DLBCL, DRB1-0102, group Significant response, ± SD
[4] = Patient 2, De novo DLBCL, DRB1-0101, group Significant response, ± SD
[5] = Patient 3, De novo DLBCL, DRB1-0301, group Significant response, ± SD
[6] = Patient 4, De novo DLBCL, DRB1-0102, group Significant response, ± SD
[7] = Patient 8, De novo DLBCL, DRB1-1501, group Significant response, ± SD
[8] = Patient 9, De novo DLBCL, DRB1-0301, group Significant response, ± SD
[9] = Patient 10, De novo DLBCL, DRB1-0101, group No significant response, ± SD
[10] = Patient 12, De novo DLBCL, DRB1-0401, group Significant response, ± SD
[11] = Patient 15, De novo DLBCL, DRB1-1301, group No significant response, ± SD
[12] = Patient 17, De novo DLBCL, DRB1-0301, group No significant response, ± SD
[13] = Patient 18, De novo DLBCL, DRB1-0401, group No significant response, ± SD
[14] = Patient 19, De novo DLBCL, DRB1-1104, group No significant response, ± SD
[15] = Patient 20, De novo DLBCL, DRB1-1303, group No significant response, ± SD
[16] = Patient 21, De novo DLBCL, DRB1-0301, group No significant response, ± SD
[17] = Patient 24, De novo DLBCL, DRB1-1301, group Significant response, ± SD
[18] = Patient 28, Trans DLBCL, DRB1-0701, group No significant response, ± SD
[19] = Patient 37, Trans DLBCL, DRB1-0103, group Significant response, ± SD
[20] = Patient 48, T-cell rich DLBCL, DRB1-0301, group Significant response, ± SD
[21] = Patient 61, De novo DLBCL, DRB1-0401, group No significant response, ± SD

ILKEPVHGV [HIV peptide, reference compound]
TH γ-IFN response to peptides at time of diagnosis and after one year ([1]; DLBCL patients (FIG. 5), short term culture, p<0.05): No significant response | γ-IFN response to CTL peptides at time of diagnosis and after one year ([1]; HLA-A*0201-positive DLBCL patients (12 and 48, FIG. 2a), short term culture, p<0.05): No significant response

AENISSLLGHLPAEIVGKKL (listed as Homo sapiens) [PASD1(8)]
γ-IFN response to peptides ([2]; Healthy donor HD 1, DRB1-0102): 18 ± 2 | γ-IFN response to peptides ([2]; Healthy donor HD 2, DRB1-0401): 10 ± 2 | γ-IFN response to peptides ([2]; Healthy donor HD 3, DRB1-0401): 6 ± 2 | γ-IFN response to peptides ([2]; Healthy donor HD 4, DRB1-0301): 10 ± 2 | γ-IFN response to peptides ([2]; Healthy donor HD 5, DRB1-0301): 10 ± 2 | γ-IFN response to peptides [1, 3]: 32 ± 3 | γ-IFN response to peptides [1, 4]: 36 ± 6 | γ-IFN response to peptides [1, 5]: 18 ± 2 | γ-IFN response to peptides [1, 6]: 28 ± 4 | γ-IFN response to peptides [1, 7]: 20 ± 4 | γ-IFN response to peptides [1, 8]: 12 ± 3 | γ-IFN response to peptides [1, 9]: 36 ± 4 | γ-IFN response to peptides [1, 10]: 24 ± 4 | γ-IFN response to peptides [1, 11]: 10 ± 1 | γ-IFN response to peptides [1, 12]: 14 ± 2 | γ-IFN response to peptides [1, 13]: 20 ± 2 | γ-IFN response to peptides [1, 14]: 24 ± 2 | γ-IFN response to peptides [1, 15]: 18 ± 2 | γ-IFN response to peptides [1, 16]: 14 ± 2 | γ-IFN response to peptides [1, 17]: 28 ± 4 | γ-IFN response to peptides [1, 18]: 16 ± 2 | γ-IFN response to peptides [1, 19]: 16 ± 2 | γ-IFN response to peptides [1, 20]: 40 ± 6 | γ-IFN response to peptides [1, 21]: 12 ± 2

phytohaemagglutinin [PHA, reference compound]
γ-IFN response to peptides ([2]; Healthy donor HD 1, DRB1-0102): 86 ± 14 | γ-IFN response to peptides ([2]; Healthy donor HD 2, DRB1-0401): 66 ± 10 | γ-IFN response to peptides ([2]; Healthy donor HD 3, DRB1-0401): 46 ± 6 | γ-IFN response to peptides ([2]; Healthy donor HD 4, DRB1-0301): 74 ± 16 | γ-IFN response to peptides ([2]; Healthy donor HD 5, DRB1-0301): 63 ± 10 | γ-IFN response to peptides ([1]; PBMCs from a DLBCL patient stimulated in culture with PASD1(6) or PASD1(7) peptides, +/− SD): 48 +/− 2 | γ-IFN response to peptides [1, 3]: 98 ± 15 | γ-IFN response to peptides [1, 4]: 106 ± 18 | γ-IFN response to peptides [1, 5]: 62 ± 8 | γ-IFN response to peptides [1, 6]: 98 ± 14 | γ-IFN response to peptides [1, 7]: 48 ± 4 | γ-IFN response to peptides [1, 8]: 118 ± 18 | γ-IFN response to peptides [1, 9]: 78 ± 8 | γ-IFN response to peptides [1, 10]: 72 ± 10 | γ-IFN response to peptides [1, 11]: 58 ± 6 | γ-IFN response to peptides [1, 12]: 54 ± 12 | γ-IFN response to peptides [1, 13]: 62 ± 12 | γ-IFN response to peptides [1, 14]: 58 ± 14 | γ-IFN response to peptides [1, 15]: 52 ± 10 | γ-IFN response to peptides [1, 16]: 102 ± 10 | γ-IFN response to peptides [1, 17]: 86 ± 14 | γ-IFN response to peptides [1, 18]: 45 ± 8 | γ-IFN response to peptides [1, 19]: 126 ± 22 | γ-IFN response to peptides [1, 20]: 84 ± 10 | γ-IFN response to peptides [1, 21]: 58 ± 10

DESFRKYTAFTIPSMNNETP (Human immunodeficiency virus type 1) [HIV-1, control irrelevant peptide from HIV-1 reverse transcriptase used with the TH peptides, reference compound]
γ-IFN response to peptides ([2]; Healthy donor HD 1, DRB1-0102): 8 ± 2 | γ-IFN response to peptides ([2]; Healthy donor HD 2, DRB1-0401): 6 ± 2 | γ-IFN response to peptides ([2]; Healthy donor HD 3, DRB1-0401): 1 ± 1 | γ-IFN response to peptides ([2]; Healthy donor HD 4, DRB1-0301): 10 ± 2 | γ-IFN response to peptides ([2]; Healthy donor HD 5, DRB1-0301): 8 ± 2 | γ-IFN response to peptides [1, 3]: 2 ± 1 | γ-IFN response to peptides [1, 4]: 16 ± 2 | γ-IFN response to peptides [1, 5]: 8 ± 2 | γ-IFN response to peptides [1, 6]: 14 ± 2 | γ-IFN response to peptides [1, 7]: 12 ± 4 | γ-IFN response to peptides [1, 8]: 4 ± 2 | γ-IFN response to peptides [1, 9]: 16 ± 4 | γ-IFN response to peptides [1, 10]: 12 ± 2 | γ-IFN response to peptides [1, 11]: 14 ± 4 | γ-IFN response to peptides [1, 12]: 10 ± 2 | γ-IFN response to peptides [1, 13]: 14 ± 2 | γ-IFN response to peptides [1, 14]: 12 ± 2 | γ-IFN response to peptides [1, 15]: 10 ± 2 | γ-IFN response to peptides [1, 16]: 10 ± 2 | γ-IFN response to peptides [1, 17]: 8 ± 2 | γ-IFN response to peptides [1, 18]: 6 ± 2 | γ-IFN response to peptides [1, 19]: 16 ± 2 | γ-IFN response to peptides [1, 20]: 12 ± 2 | γ-IFN response to peptides [1, 21]: 12 ± 2

VGNVCILRTQLLQQLYTSKA (listed as Homo sapiens) [PASD1(9)]
γ-IFN response to peptides ([2]; Healthy donor HD 1, DRB1-0102): 14 ± 2 | γ-IFN response to peptides ([2]; Healthy donor HD 2, DRB1-0401): 1 ± 1 | γ-IFN response to peptides ([2]; Healthy donor HD 3, DRB1-0401): 8 ± 2 | γ-IFN response to peptides ([2]; Healthy donor HD 4, DRB1-0301): 19 ± 2 | γ-IFN response to peptides ([2]; Healthy donor HD 5, DRB1-0301): 18 ± 2 | γ-IFN response to peptides [1, 3]: 30 ± 2 | γ-IFN response to peptides [1, 4]: 24 ± 2 | γ-IFN response to peptides [1, 5]: 24 ± 2 | γ-IFN response to peptides [1, 6]: 18 ± 2 | γ-IFN response to peptides [1, 7]: 18 ± 2 | γ-IFN response to peptides [1, 8]: 20 ± 2 | γ-IFN response to peptides [1, 9]: 10 ± 2 | γ-IFN response to peptides [1, 10]: 20 ± 4 | γ-IFN response to peptides [1, 11]: 8 ± 2 | γ-IFN response to peptides [1, 12]: 8 ± 2 | γ-IFN response to peptides [1, 13]: 24 ± 2 | γ-IFN response to peptides [1, 14]: 18 ± 2 | γ-IFN response to peptides [1, 15]: 8 ± 2 | γ-IFN response to peptides [1, 16]: 16 ± 2 | γ-IFN response to peptides [1, 17]: 26 ± 4 | γ-IFN response to peptides [1, 18]: 22 ± 4 | γ-IFN response to peptides [1, 19]: 28 ± 2 | γ-IFN response to peptides [1, 20]: 26 ± 2 | γ-IFN response to peptides [1, 21]: 16 ± 2

NHPVRFLQAQPIVPVQRAAE (listed as Homo sapiens) [PASD1(10)]
γ-IFN response to peptides ([2]; Healthy donor HD 1, DRB1-0102): 10 ± 2 | γ-IFN response to peptides ([2]; Healthy donor HD 2, DRB1-0401): 4 ± 2 | γ-IFN response to peptides ([2]; Healthy donor HD 3, DRB1-0401): 2 ± 1 | γ-IFN response to peptides ([2]; Healthy donor HD 4, DRB1-0301): 18 ± 2 | γ-IFN response to peptides ([2]; Healthy donor HD 5, DRB1-0301): 16 ± 2 | γ-IFN response to peptides [1, 3]: 40 ± 2 | γ-IFN response to peptides [1, 4]: 40 ± 4 | γ-IFN response to peptides [1, 5]: 32 ± 2 | γ-IFN response to peptides [1, 6]: 32 ± 4 | γ-IFN response to peptides [1, 7]: 18 ± 4 | γ-IFN response to peptides [1, 8]: 14 ± 2 | γ-IFN response to peptides [1, 9]: 32 ± 2 | γ-IFN response to peptides [1, 10]: 32 ± 4 | γ-IFN response to peptides [1, 11]: 18 ± 4 | γ-IFN response to peptides [1, 12]: 10 ± 4 | γ-IFN response to peptides [1, 13]: 22 ± 2 | γ-IFN response to peptides [1, 14]: 12 ± 2 | γ-IFN response to peptides [1, 15]: 16 ± 2 | γ-IFN response to peptides [1, 16]: 18 ± 2 | γ-IFN response to peptides [1, 17]: 16 ± 4 | γ-IFN response to peptides [1, 18]: 10 ± 2 | γ-IFN response to peptides [1, 19]: 34 ± 2 | γ-IFN response to peptides [1, 20]: 38 ± 2 | γ-IFN response to peptides [1, 21]: 6 ± 2
